Assay results reported in ChEMBL document CHEMBL1130850, “Asymmetric synthesis and anti-HIV activity of L-carbocyclic 2',3'-didehydro-2',3'-dideoxyadenosine” (Bioorg Med Chem Lett, 1998).

Assays:
[1] = Compound was evaluated for its cytotoxicity against peripheral blood mononuclear (PBM) cells.; type: functional, cell-based; details: Homo sapiens
CCRF-CEM [2] = experiment: Compound was evaluated for its cytotoxicity expressed as IC50 against CEM cells.; type: functional, cell-based; details: Homo sapiens
Vero = experiment: Compound was evaluated for its cytotoxicity against vero cells.; type: functional, cell-based; details: Chlorocebus sabaeus
[3] = Compound was evaluated for its anti-HIV activity in vitro in peripheral blood mononuclear (PBM) cells; type: functional; details: Homo sapiens
CCRF-CEM [4] = experiment: Compound was evaluated for its cytotoxicity against CEM cells.; type: functional, cell-based; details: Homo sapiens

SMILES	IC50 [1] [µM]	IC50 (CCRF-CEM [2]) [µM]	IC50 (Vero) [µM]	EC50 [3] [µM]	EC90 [3] [µM]	IC50 (CCRF-CEM [4]) [µM]
Nc1ncnc2c1ncn2C1C=CC(CO)C1 (stereo unspecified)	> 100	> 100	> 100	2.4	11.7	–
Cc1cn([C@H]2C[C@H](N=[N+]=[N-])[C@@H](CO)O2)c(=O)[nH]c1=O [ZIDOVUDINE]	> 100	–	–	0.004	–	–
OCC1C=CC(n2cnc3c(S)ncnc32)C1 (stereo unspecified)	> 100	–	> 100	> 100	–	> 100
